# Reference: PMC12373846, “Hemoglobin as a pseudoperoxidase and drug target for oxidative stress-related diseases” (Signal Transduction and Targeted Therapy, 2025)
# Columns and labels:
# aged C57BL/6J mice = test: Open field locomotor activity, aging mice; type: in vivo, mouse; conditions: 26 month
# [1] = tested on: primary cultured hippocampal astrocytes; test: oROS-G intracellular H2O2 imaging; type: cell-based, mouse; conditions: for oROS-G intensity: Fig. 6e
# Protocol: Primary hippocampal astrocytes were obtained from postnatal day 0‒2 (P0‒2) C57BL/6 mice as previously described.[73] The hippocampal tissue was dissected free of meninges, minced, and dissociated into a single-cell suspension by trituration. The cells were grown in Dulbecco’s modified Eagle’s medium supplemented with D-glucose (4500 mg/L), L-glutamine, sodium pyruvate (110 mg/L), 10% heat-inactivated horse serum, 10% heat-inactivated fetal bovine serum, and 1000 U/ml penicillin‒streptomycin. The cells were maintained at 37 °C in a humidified atmosphere containing 5% CO2.
# H2O2 specific, highly sensitive, and fast on-and-off kinetics, a genetically encoded oROS-G plasmid kindly provided by Dr. Andre Berndt. oROS-G was cloned under the GFAP104 promoter and delivered into primary cultured hippocampal astrocytes via the NeoN^TM transfection system (Invitrogen). The cells were treated with various concentrations of Aβ (1 to 10 μM) or 6-OHDA (Tocris, 2547; 10 to 50 μM) to induce aberrant H2O2. For subsequent experiments, 5 μM Aβ and 30 μM 6-OHDA were selected on the basis of initial dose‒response studies. KDS12025 (10 μM) and sodium pyruvate (1 mM) were applied as indicated in each experiment. For live-cell imaging, astrocytes were maintained in a humidified chamber at 37 °C with 5% […] during imaging to preserve physiological conditions. Changes in the fluorescence of oROS-G were recorded via an A1 Nikon confocal microscope equipped with a temperature- and humidity-controlled stage. Images were captured every 20 min for up to 40 h (20for the 6-OHDA experiments) via the NIS-Elements software (Nikon, Japan) for time-lapse imaging. The excitation and emission wavelengths for oROS-G fluorescence were set to 485 nm and 538 nm, respectively. Endpoint fluorescence measurements were also collected for KDS12025 dose-dependent experiments. To analyze the fluorescence intensity, individual regions of interest (ROIs) were manually selected for each astrocyte via NIS-Elements software (Nikon, Japan). The fluorescence intensity changes were normalized to the baseline values (ΔF/F0) to quantify the H2O2 dynamics. To determine the EC50 of KDS12025, endpoint fluorescence intensity data from oROS-G experiments were normalized to those of the Aβ+vehicle control group. The normalized data were analyzed via GraphPad Prism software to fit a four-parameter logistic curve, yielding the EC50 value for the H2O2-decomposing activity of KDS12025.
# C57BL/6J mice = test: PhenoMaster respiration and metabolic analysis; type: in vivo, mouse; set-up: energy expenditure (Fig. S8b) / total food consumption (Fig. S8c) / total drink consumption (Fig. S8d) / oxygen consumption (stats entry 2j): unit not given here
# Protocol: For respiration and metabolic analysis, PhenoMaster (TSE Systems, Germany) was employed. All C57BL/6J mice aged 8–10 weeks underwent initial chamber habituation and gas calibration on day 0. Starting on day 3, the mice were administered KDS12025 dissolved in water at dosages of 0.1, 1, and 10 mg/kg/day (ad libitum drinking water). Respiratory and metabolic measurements, including oxygen consumption, carbon dioxide production, and the respiratory exchange ratio (RER, calculated as VCO2/VO2), as well as food and drink intake and energy expenditure, were conducted from day 4. The recording ends on day 8 with data collection.
# mouse hemoglobin (mHb) = molecular target: T1, mouse hemoglobin (mHb) (Mus musculus, UniProt P02088); test: ROS-Glo H2O2 assay with mouse hemoglobin; type: biochemical; conditions: Fig. S1f; read-out: EC50, H2O2 decomposition with mouse hemoglobin (mHb)
# T1 construct: Mouse hemoglobin (Hb) purified from erythrocytes; purchased CUSABIO CSB-NP004901m; host or cells: erythrocytes
# Protocol: Mouse hemoglobin (Hb) purified from erythrocytes (Cat. CSB-NP004901m, CUSABIO) was used for the ROS-Glo H2O2 assay. KDS12025 was added in a dose-dependent manner to a reaction mixture containing mouse Hb and H2O2. The assay was performed according to the manufacturer’s protocol (Promega), and luminescence was measured using an iD5 plate reader. H2O2-decomposing activity was calculated as the percentage reduction in luminescence relative to controls. Assays with human Hb were conducted in parallel for comparison.
# T1 sequence (P02088 2-147 limits assumed): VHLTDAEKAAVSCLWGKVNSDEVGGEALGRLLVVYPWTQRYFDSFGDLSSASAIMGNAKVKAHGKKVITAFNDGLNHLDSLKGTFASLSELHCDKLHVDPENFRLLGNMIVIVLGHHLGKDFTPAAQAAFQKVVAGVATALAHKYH
# T1 sequence (P01942 2-142 partner limits assumed): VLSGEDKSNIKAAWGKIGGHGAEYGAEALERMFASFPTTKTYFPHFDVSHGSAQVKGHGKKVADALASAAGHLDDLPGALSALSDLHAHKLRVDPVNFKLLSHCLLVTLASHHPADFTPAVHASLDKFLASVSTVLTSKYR
smiles,measurement,setting,value
"CNc1ccc(NCCc2ccccc2OC)cc1.Cl [KDS12025, N^1-(2-methoxyphenethyl)-N^4-methylbenzene-1,4-diamine hydrochloride salt]",distance traveled (Fig. 7d),aged C57BL/6J mice; 0.1mpk,3262±203
same,locomotor velocity (Fig. 7c),aged C57BL/6J mice; 0.1mpk,5.42±0.34
same,distance traveled (Fig. 7d),aged C57BL/6J mice; 1mpk,3600±561
same,locomotor velocity (Fig. 7c),aged C57BL/6J mice; 1mpk,6.24±0.6
same,oROS-G H2O2 level,"[1]; 6-OHDA 30 μM + KDS12025, Fig. 3k",123.4±9.7
same,"oROS-G H2O2 level, 40-h imaging","[1]; Aβ 5 μM + KDS12025 10 μM, Fig. 3h",111.8±4.968
same,oROS-G intensity,"[1]; Hbβ-shRNA, Aβ 5 μM + 0.1μM",199.3
same,oROS-G intensity,"[1]; Hbβ-shRNA, Aβ 5 μM + 1μM",204.7
same,oROS-G intensity,"[1]; Hbβ-shRNA, Aβ 5 μM + 10μM",182.4
same,EC50,"[1]; Mus musculus, Astrocyte, Aβ 5 µM-treated astrocytes, oROS-G endpoint, read-out: EC50, reduction of Aβ-induced H2O2",500 nM
same,oROS-G intensity,"[1]; Sc-shRNA, Aβ 5 μM + 0.1μM",100.5±13.5
same,oROS-G intensity,"[1]; Sc-shRNA, Aβ 5 μM + 1μM",112.3±24.1
same,oROS-G intensity,"[1]; Sc-shRNA, Aβ 5 μM + 10μM",83.4±13.5
same,"oROS-G H2O2 level, 40-h imaging","[1]; putrescine 180 μM + KDS12025 10 μM, Fig. 3i",96.12±6.634
same,carbon dioxide production (stats entry 2k),"C57BL/6J mice; 0.1mpk, dark",3345
same,energy expenditure (Fig. S8b),"C57BL/6J mice; 0.1mpk, dark",22.37±1.215
same,oxygen consumption (stats entry 2j),"C57BL/6J mice; 0.1mpk, dark",4228
same,respiratory exchange ratio (stats entry 2l),"C57BL/6J mice; 0.1mpk, dark",0.849
same,total drink consumption (Fig. S8d),"C57BL/6J mice; 0.1mpk, dark",0.1272±0.009
same,total food consumption (Fig. S8c),"C57BL/6J mice; 0.1mpk, dark",0.1543±0.018
same,carbon dioxide production (stats entry 2k),"C57BL/6J mice; 0.1mpk, full day",3292
same,energy expenditure (Fig. S8b),"C57BL/6J mice; 0.1mpk, full day",22.21±1.751
same,oxygen consumption (stats entry 2j),"C57BL/6J mice; 0.1mpk, full day",4161
same,respiratory exchange ratio (stats entry 2l),"C57BL/6J mice; 0.1mpk, full day",0.857
same,total drink consumption (Fig. S8d),"C57BL/6J mice; 0.1mpk, full day",0.108±0.005
same,total food consumption (Fig. S8c),"C57BL/6J mice; 0.1mpk, full day",0.126±0.0123
same,carbon dioxide production (stats entry 2k),"C57BL/6J mice; 0.1mpk, light",3065
same,oxygen consumption (stats entry 2j),"C57BL/6J mice; 0.1mpk, light",3923
same,respiratory exchange ratio (stats entry 2l),"C57BL/6J mice; 0.1mpk, light",0.833
same,carbon dioxide production (stats entry 2k),"C57BL/6J mice; 1mpk, dark",3167
same,energy expenditure (Fig. S8b),"C57BL/6J mice; 1mpk, dark",21.29±0.7258
same,oxygen consumption (stats entry 2j),"C57BL/6J mice; 1mpk, dark",4063
same,respiratory exchange ratio (stats entry 2l),"C57BL/6J mice; 1mpk, dark",0.891
same,total drink consumption (Fig. S8d),"C57BL/6J mice; 1mpk, dark",0.1220±0.0208
same,total food consumption (Fig. S8c),"C57BL/6J mice; 1mpk, dark",0.1761±0.0164
same,carbon dioxide production (stats entry 2k),"C57BL/6J mice; 1mpk, full day",3075
same,energy expenditure (Fig. S8b),"C57BL/6J mice; 1mpk, full day",21.26±0.07088
same,oxygen consumption (stats entry 2j),"C57BL/6J mice; 1mpk, full day",3871
same,respiratory exchange ratio (stats entry 2l),"C57BL/6J mice; 1mpk, full day",0.883
same,total drink consumption (Fig. S8d),"C57BL/6J mice; 1mpk, full day",0.0902±0.0248
same,total food consumption (Fig. S8c),"C57BL/6J mice; 1mpk, full day",0.166±0.03508
same,carbon dioxide production (stats entry 2k),"C57BL/6J mice; 1mpk, light",2916
same,energy expenditure (Fig. S8b),"C57BL/6J mice; 1mpk, light",19.95±0.3562
same,oxygen consumption (stats entry 2j),"C57BL/6J mice; 1mpk, light",3584
same,respiratory exchange ratio (stats entry 2l),"C57BL/6J mice; 1mpk, light",0.860
same,total drink consumption (Fig. S8d),"C57BL/6J mice; 1mpk, light",0.0790±0.0149
same,total food consumption (Fig. S8c),"C57BL/6J mice; 1mpk, light",0.1032±0.009
same,carbon dioxide production (stats entry 2k),"C57BL/6J mice; 10mpk, dark",3344
same,energy expenditure (Fig. S8b),"C57BL/6J mice; 10mpk, dark",20.73±0.9735
same,oxygen consumption (stats entry 2j),"C57BL/6J mice; 10mpk, dark",4216
same,respiratory exchange ratio (stats entry 2l),"C57BL/6J mice; 10mpk, dark",0.877
same,total drink consumption (Fig. S8d),"C57BL/6J mice; 10mpk, dark",0.1041±0.0394
same,total food consumption (Fig. S8c),"C57BL/6J mice; 10mpk, dark",0.1572±0.01881
same,carbon dioxide production (stats entry 2k),"C57BL/6J mice; 10mpk, full day",3120
same,energy expenditure (Fig. S8b),"C57BL/6J mice; 10mpk, full day",19.14±0.6082
same,oxygen consumption (stats entry 2j),"C57BL/6J mice; 10mpk, full day",3593
same,respiratory exchange ratio (stats entry 2l),"C57BL/6J mice; 10mpk, full day",0.857
same,total drink consumption (Fig. S8d),"C57BL/6J mice; 10mpk, full day",0.0776±0.01206
same,total food consumption (Fig. S8c),"C57BL/6J mice; 10mpk, full day",0.1288±0.0108
same,carbon dioxide production (stats entry 2k),"C57BL/6J mice; 10mpk, light",2900
same,energy expenditure (Fig. S8b),"C57BL/6J mice; 10mpk, light",18.91±1.057
same,oxygen consumption (stats entry 2j),"C57BL/6J mice; 10mpk, light",3753
same,respiratory exchange ratio (stats entry 2l),"C57BL/6J mice; 10mpk, light",0.831
same,total drink consumption (Fig. S8d),"C57BL/6J mice; 10mpk, light",0.05856±0.0075
same,total food consumption (Fig. S8c),"C57BL/6J mice; 10mpk, light",0.09464±0.0095
same,EC50,mouse hemoglobin (mHb),24 nM
